Test results: patent US5773444A, “Quinazolines as inhibitors of endothelin converting enzyme” (Warner-Lambert Company, priority 1997, dated 1998)
pIC50: −log10 of the molar value. Non-standard residues stand in square brackets, D forms with d. Residues, ends and D or L forms follow the SMILES beside them. No end group written: not given here.

What was measured:
[1] = tested on: mouse model of endotoxic shock; conditions: cited from earlier work
[2] = tested on: ET-1-induced bronchoconstriction and tracheal smooth muscle contraction; conditions: allergic sheep; cited from earlier work
[3] = tested on: isolated nonischemic and ischemic rat hearts; conditions: cited from earlier work; for preischemic increase in coronary perfusion pressure induced by big ET-1 and its proischemic effect: phosphoramidon 100 μM, BQ-123 0.3 μM; for pIC50: isolated rat hearts, read-out: IC50, reduction of coronary flow; for time to contracture in globally ischemic rat hearts: pretreatment / 10 nMol big ET-1
[4] = tested on: models of acute renal ischemia and subarachnoid hemorrhage in rats; conditions: cited from earlier work
[5] = tested on: caliber of the basilar artery and systemic arterial pressure; conditions: anesthetized dogs, intracisternal big ET-1; cited from earlier work
[6] = tested on: intracellular conversion of big ET-1 to ET-1; conditions: cultured vascular endothelial cells and smooth muscle cells; cited from earlier work
[7] = tested on: lethality induced by the intravenous infusion of big ET-1; conditions: in vivo; cited from earlier work
[8] = tested on: vasoconstrictor effects evoked by intravenous injections of big ET-1; conditions: anaesthetized pigs; cited from earlier work
[9] = tested on: hemodynamic actions of big ET-1 in rat brain; conditions: cited from earlier work
[10] = tested on: neutral endopeptidase 24.11 (NEP 24.11); test: NEP 24.11 inhibition under ECE assay conditions; assay type: biochemical, human; conditions: 100 μM thiorphan or 100 nM phosphoramidon
Description: The cell line, EA.hy926, contains neutral endopeptidase 24.11 (NEP 24.11) which also cleaves big ET-1 to ET-1 and c-terminal fragment (manuscript submitted). […] All the data were obtained in the linear range of time-course curves.

[11] = tested on: rats subjected to coronary occlusion and reperfusion; conditions: given IV; cited from earlier work
[12] = tested on: pressor response of big ET; conditions: micromolar concentrations, in vitro and in vivo; cited from earlier work
[13] = tested on: pressor response of big ET-1; conditions: ganglion-blocked anesthetized rats; cited from earlier work
[14] = tested on: effects of big ET-1 in the microvasculature; conditions: anesthetized hamsters; cited from earlier work
[15] = molecular target: T1, endothelin converting enzyme (ECE) (Homo sapiens, UniProt P42892); test: ECE assay (partially purified ECE from EA.hy926, ET-1 production by RIA); assay type: biochemical; conditions: 100 μM thiorphan or 100 nM phosphoramidon
T1 construct: ECE was partially purified from EA.hy926 grown in 150 roller; endogenous in cells; host or cells: EA.hy926 (human umbilical vein endothelial cells fused with A549); detergent-solubilised membranes, RCA-I lectin eluate

[16] = tested on: gastric mucosal hemorrhagic change; conditions: 50-500 pmol/kg into the left gastric artery; cited from earlier work
[17] = tested on: behavioral effects; conditions: intracerebroventricular, rats; cited from earlier work
[18] = tested on: blood pressure; conditions: in vivo; cited from earlier work

T1 sequence (P42892 whole entry, the tested form may be a part): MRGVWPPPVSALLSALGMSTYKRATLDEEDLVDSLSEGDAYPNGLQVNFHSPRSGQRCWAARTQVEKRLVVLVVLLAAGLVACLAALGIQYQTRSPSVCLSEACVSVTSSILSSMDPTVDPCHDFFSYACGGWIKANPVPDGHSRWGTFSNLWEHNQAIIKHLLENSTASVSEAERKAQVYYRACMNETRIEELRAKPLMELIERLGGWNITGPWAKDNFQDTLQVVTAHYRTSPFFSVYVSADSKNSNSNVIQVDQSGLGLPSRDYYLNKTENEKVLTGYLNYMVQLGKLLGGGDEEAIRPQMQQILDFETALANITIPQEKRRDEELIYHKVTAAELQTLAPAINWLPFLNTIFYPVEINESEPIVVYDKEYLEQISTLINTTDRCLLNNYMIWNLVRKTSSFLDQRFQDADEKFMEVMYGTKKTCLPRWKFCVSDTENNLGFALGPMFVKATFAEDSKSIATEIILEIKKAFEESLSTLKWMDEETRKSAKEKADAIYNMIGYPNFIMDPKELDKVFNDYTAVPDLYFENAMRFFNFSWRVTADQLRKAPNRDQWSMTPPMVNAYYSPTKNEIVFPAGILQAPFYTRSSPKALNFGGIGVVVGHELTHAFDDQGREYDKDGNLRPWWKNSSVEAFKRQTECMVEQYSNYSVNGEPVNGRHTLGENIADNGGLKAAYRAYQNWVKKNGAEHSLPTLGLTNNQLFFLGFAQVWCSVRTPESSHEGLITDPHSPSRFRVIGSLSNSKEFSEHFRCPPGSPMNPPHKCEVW

CC(C)C[C@@H]1NC(=O)[C@@H](C(C)C)NC(=O)[C@@H]2CCCN2C(=O)[C@@H](CC(=O)O)NC(=O)[C@@H](Cc2c[nH]c3ccccc23)NC1=O [BQ-123] (cyclo(L[dW][dD]P[dV]))
survival rate [1]: significantly increased the survival rate
ET-1-induced bronchoconstriction and tracheal smooth muscle contraction [2]: block ET-1-induced bronchoconstriction and tracheal smooth muscle contraction
preischemic increase in coronary perfusion pressure induced by big ET-1 and its proischemic effect [3]: abolished

COc1cccc(Oc2c(NS(=O)(=O)c3ccc(C(C)(C)C)cc3)ncnc2OCCO)c1 [RO 46-2005]
efficacy in models of acute renal ischemia and subarachnoid hemorrhage [4]: effective

CC(C)C[C@H](NP(=O)(O)O[C@@H]1O[C@@H](C)[C@H](O)[C@@H](O)[C@H]1O)C(=O)N[C@@H](Cc1c[nH]c2ccccc12)C(=O)O [phosphoramidon]
block of big ET-1 effects on basilar artery caliber and systemic arterial pressure [5]: These effects were blocked by phosphoramidon
inhibition of intracellular conversion of big ET-1 to ET-1 [6]: inhibit the intracellular conversion of big ET-1 to ET-1
lethality induced by the intravenous infusion of big ET-1 [7]: suppress the lethality
effect on plasma ET-1 level [8]: did not have any effect on the plasma ET-1 level
vasoconstrictor effects evoked by i.v. big ET-1 [8]: inhibit vasoconstrictor effects
inhibition of hemodynamic actions of big ET-1 [9]: phosphoramidon sensitive inhibition of hemodynamic actions of big ET-1
NEP 24.11 inhibition [10]: completely inhibited
preischemic increase in coronary perfusion pressure induced by big ET-1 and its proischemic effect [3]: abolished
infarct size 24 hour postischemia [11]: significantly reduce infarct size
block of pressor response of big ET [12]: block the pressor response of big ET
block of pressor response of big ET-1 [13]: blocked by phosphoramidon in a dose-dependent manner
effects of big ET-1 in the microvasculature [14]: inhibit the effects of big ET-1
effect on ECE activity at NEP-blocking concentration [15]: without affecting the ECE activity

ET-1: potent vasoconstrictor, is a 21 amino acid bicyclic peptide
pIC50 [3]: 4.92
time to contracture in globally ischemic rat hearts [3]: significantly reduced the time to contracture
tissue type plasminogen activator release, platelet activating formation and gastric mucosal hemorrhagic change [16]: increased the tissue type plasminogen activator release and platelet activating formation and induced gastric mucosal hemorrhagic change in a dose-dependent manner
behavioral effects [17]: evoke behavioral effects

big ET-1: 38 (human) or 39 (porcine) amino acid peptide known as big endothelin or proendothelin (CSCSSLMDKECVYFCHLDIIWVNTPEHVVPYGLGSPRS; ends and bridges not checked; cysteine pairing not given here; UniProt P05305 53-90, looked up)
potency at raising blood pressure relative to ET-1 [18]: equally potent in vivo
pIC50 [3]: 8.70
time to contracture in globally ischemic rat hearts [3]: significantly reduced the time to contracture
